Data on 1 compound can be found in patent US9457033B2, “Steroid alkaloids and uses thereof as antimicrobial agents against electron transport-deficient microbes and as potentiators for antimicrobial agents against pathogenic bacteria” (priority 2011, dated 2016).

≈ marks a conversion by molar mass, not a printed value. Read-outs that look alike come from different tables or passages of the source.

For test [1], the system named is SCV strain CF07-S in shCFTR cells. The test is described as follows: Intracellular infection of polarized CF airway epithelial cells (shCFTR). The test is classed as cell-based, Staphylococcus aureus. To be noted: 1.25 and 12.5 μg/ml of tomatidine; 48 h post-internalization; FIG. 4B.
A further test relates to S. aureus SCV CF07-S. The test is described as follows: MIC, microdilution in BHI 48 h (Examples 1, 3). The test is classed as cell-based, Staphylococcus aureus.
The test system of test [2] is S. aureus CF07-L (normal strain). The test is described as follows: MIC, microdilution in BHI 48 h (Examples 1, 3). The test is classed as cell-based, Staphylococcus aureus.
In test [3] the test system is S. aureus SCV NewbouldΔhemB. Kind of test: microbe, parasite or virus in culture. The test is classed as cell-based. To be noted: Staphylococcus aureus, 24 h, read-out: Diameter of inhibition zone.
Test [4] deals with normal S. aureus strain CF07-L. The test is described as follows: Broth growth with HQNO and/or tomatidine, visually evaluated (FIG. 2). The test is classed as cell-based, Staphylococcus aureus. To be noted: combination of HQNO (20 μg/ml) and tomatidine (8 μg/ml), 48 h. On the procedure: The MICs of tomatidine, tomatine and control antibiotics (gentamicin, vancomycin, erythromycin, ciprofloxacin and oxacillin) were determined against the normal strains ATCC 29213 and CF07-L as well as against the SCV strain CF07-S in the presence of 20 μg HQNO/ml.

Test [5] has as its system S. aureus SCV NewbouldΔhemB. The test is described as follows: MIC, microdilution in BHI 48 h. The test is classed as cell-based, Staphylococcus aureus. To be noted: Staphylococcus aureus. For orientation: Dilution methods test growth across graded concentrations, often in twofold steps.
For a further test, the system named is S. aureus SCV CF1D-S. Kind of test: MIC, microdilution in BHI 48 h. The test is classed as cell-based, Staphylococcus aureus. To be noted: Staphylococcus aureus, SCVCF1DS.
Another test has as its system normal strain CF07-L. Kind of test: Broth growth with gentamicin or tomatidine, visually evaluated (FIG. 5A). To be noted: gentamicin at 4 μg/ml or tomatidine at 0.12 μg/ml alone, 48 h.
The subject of test [6] is S. aureus ATCC 29213 alone. The test is described as follows: Viability in mono-culture, CAMHB. In kind it is cell-based, Staphylococcus aureus. To be noted: SA alone + TO at 8 μg/ml. From the text:
Bacteria were sampled, serially diluted and plated on tryptic soy agar for CFU determinations. […] Mannitol-salt agar plates were used to selectively evaluate S. aureus CFU when in co-culture with P. aeruginosa.

Test [7] has as its system S. aureus CF1A-L (normal strain). The test is described as follows: MIC, microdilution in BHI 48 h. In kind it is cell-based, Staphylococcus aureus. To be noted: Staphylococcus aureus; CF1A-L, normal strain; read-out: MIC.
The subject of test [8] is S. aureus Newbould (normal strain). Kind of test: MIC, microdilution in BHI 48 h. In kind it is cell-based, Staphylococcus aureus. To be noted: Staphylococcus aureus; Newbould, normal strain; read-out: MIC.
A further test relates to S. aureus ATCC 29213. The test is described as follows: MIC, microdilution in BHI 48 h (Examples 1, 3). The test is classed as cell-based, Staphylococcus aureus.

A word on the MIC: it is the smallest concentration in the dilution series that meets the test's criterion for growth inhibition. Usually zone of inhibition stands for the extent of the growth-free halo in a diffusion test.

Take `C[C@H]1CC[C@]2(NC1)O[C@H]1C[C@H]3[C@@H]4CC[C@H]5C[C@@H](O)CC[C@]5(C)[C@H]4CC[C@]3(C)[C@H]1[C@@H]2C` [Tomatidine, tomatidine]: in test [1], the “intracellular SCVs CF07-S vs DMSO-treated control cells” value is reported as “significantly less”. Also, the MIC in the test on S. aureus SCV CF07-S (CF07-S + HQNO at 20 μg/ml) is 0.12 µg/mL; in the test with S. aureus SCV CF07-S (CF07-S, without HQNO), 0.12 µg/mL (≈ 0.289 µM); against S. aureus SCV CF07-S (Staphylococcus aureus, SCVCF07S), 0.12 µg/mL (≈ 0.289 µM); in test [2] (CF07-L + HQNO at 20 μg/ml) it was 0.5 µg/mL; in test [2] (CF07-L, without HQNO) it was greater than 16 µg/mL; in test [2] (Staphylococcus aureus, CF07-L, normal strain, read-out: MIC), greater than 16 µg/mL. The MIC was 0.12 µg/mL (≈ 0.289 µM) in test [5]; 0.12 µg/mL (≈ 0.289 µM) against S. aureus SCV CF1D-S; greater than 16 µg/mL in test [7]; greater than 16 µg/mL in [8]; 0.12 to 0.25 µg/mL in the test with S. aureus ATCC 29213 (ATCC 29213 + HQNO at 20 μg/ml); greater than 16 µg/mL against S. aureus ATCC 29213 (ATCC 29213, without HQNO). Besides, the MIC is greater than 16 µg/mL in the test with S. aureus ATCC 29213 (ATCC 29213 in MHBCA); greater than 16 µg/mL with S. aureus ATCC 29213 (Staphylococcus aureus, ATCC29213, ATCC 29213 in BHI, read-out: MIC); 0.12 µg/mL in the test on S. aureus ATCC 29213 (Staphylococcus aureus, ATCC29213, ATCC 29213, 1 μg/ml CCCP, read-out: MIC in presence of CCCP). The zone of inhibition at 50 µg/disc in test [3] worked out at 23.5 mm. Also, the “growth, visually evaluated” value is recorded as “inhibitory activity” in [4] and “does not” with normal strain CF07-L. In addition, the “Viability of S. aureus” value in test [6] (0 h) came out at 5.1 ± 0.4 Log10 CFU/ml; in test [6] (24 h), 9.64 ± 0.08 Log10 CFU/ml.
